# Reference: patent publication US10577333B2, “Tetrazole derivatives as cytochrome P450 inhibitors” (C26 Bioscience AB, priority 2016, dated 2020)
# Assays:
# [1] = tested on: atRA responsive genes CYP26B1 and RARβ; experiment: QRT-PCR of atRA responsive genes CYP26B1 and RARβ mRNA in human aortic smooth muscle cells; assay type: cell-based; conditions: AOSMCs
# Experimental: FIG. 1 illustrates the induction of CYP26B1 and RARβ mRNA at different concentrations of test compound: A) CYP26 and B) RARβ in human smooth muscle cells treated with 0.001-10 μM of the test compound. For all experiments n=3; *P≤0.05, **P<0.01 and ***P<0.001.
# FIG. 2 are diagrams of CYP26B1 and RARβ mRNA expression in human smooth muscle cells upon treatment with atRA and/or test compound: A) CYP26B1 and B) RARβ mRNA expression in human smooth muscle cells treated with either 1 μm of atRA, test compound or combination of both for 48 h. The experiment was performed in three independent runs; *P≤0.05, **P<0.01 and ***P<0.001.
# Human aortic smooth muscle cells (AOSMCs) were treated with different concentrations of a compound of Formula II (0.001-10 μM; FIGS. 1A and B). AOSMCs were incubated with different concentration (0.001-10 μM) of compound according to Formula II, or DMSO as control, at 37 C for 24 h. Total RNA were isolated by using E.Z.N.A total RNA kit (VWR Stockholm Sweden) and cDNA synthesis was performed through high capacity reverse transcription kits (applied Biosystems, Foster City, Calif., USA) according to manufacturers instructions.
# Next, human AOSMCs were treated with either 1 μM of atRA or a compound of Formula II alone, or a combination of both for 48 h. The purification and analysis procedures were as described above. […] The results strongly indicate that the compound of Formula II increases retinoid signalling.
# [2] = biological target: T1, purified CYP26B1 (Homo sapiens, UniProt Q9NR63); experiment: Enzymatic assay on purified CYP26B1 with oxidoreductase and NADPH, [3H] atRA, HPLC; assay type: biochemical; conditions: 5 μM, 5 nM CYP26B1, 50 nM [3H] atRA, 1 mM NADPH, 10 sec to 10 min
# T1 construct: made in house
# T1 sequence (Q9NR63 1-512): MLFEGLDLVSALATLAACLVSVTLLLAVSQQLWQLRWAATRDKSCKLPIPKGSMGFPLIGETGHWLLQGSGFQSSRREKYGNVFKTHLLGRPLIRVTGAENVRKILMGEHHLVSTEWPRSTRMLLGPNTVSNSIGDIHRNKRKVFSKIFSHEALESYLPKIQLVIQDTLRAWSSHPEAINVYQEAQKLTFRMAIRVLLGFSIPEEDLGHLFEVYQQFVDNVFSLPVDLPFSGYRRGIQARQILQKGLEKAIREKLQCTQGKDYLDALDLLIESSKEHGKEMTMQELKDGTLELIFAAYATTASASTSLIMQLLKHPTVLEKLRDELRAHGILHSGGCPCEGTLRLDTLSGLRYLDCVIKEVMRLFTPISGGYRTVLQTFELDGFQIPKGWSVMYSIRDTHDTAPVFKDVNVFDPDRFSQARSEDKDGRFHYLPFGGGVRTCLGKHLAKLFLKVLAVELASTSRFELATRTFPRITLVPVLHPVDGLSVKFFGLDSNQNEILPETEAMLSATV
# Experimental: FIG. 4 is a graph showing results from an enzymatic assay carried out on purified CYP26B1, incubated with 5 or 25 μM of the test compound in the presence of oxidoreductase and NADPH, at different time points. The control experiment was performed without initiation with NADPH. For all experiments n=3.
# To investigate the efficiency of the compound of Formula II in blocking CYP26B1, CYP26B1 was purified and subsequently incubated with 5 and 25 μM of compound of Formula II for different time points (10 s to 10 min). This experiment thus excludes any other possible metabolic route that potentially could have been present in the cellular experiments. Purified CYP26B1 was stored in buffer containing 50 mM K2HPO4, 0.5 mM EDTA and 20% of glycerol, pH 7.4 at −80° C. The assay was performed as follows: 5 nM of CYP26B1 and 10 nM oxidoreductase was preincubated. 5 or 25 μM of the compound of Formula II and 50 nM [^3H] atRA were added followed by addition of 1 mM NADPH in total volume of 100 μl of Kpi buffer and incubated for 10 sec to 10 min. The reaction was stopped by adding 100 μl absolute ethanol. The sample was subsequently extracted and analysed by HPLC. For control, experiments were performed as above but without initiation of the reaction by NADPH.
# [3] = biological target: T2, CYP26B1 (Homo sapiens, UniProt Q9NR63); experiment: [3H] atRA catabolism in CYP26B1 transfected COS-1 cells, HPLC analysis; assay type: cell-based; set-up: expressed in transfected cells; host or cells: COS-1; conditions: 1 or 10 μM for 1 h, then [3H] atRA for 2 h
# T2 sequence (Q9NR63 1-512): T1 sequence (Q9NR63 1-512)
# Experimental: (§1) FIG. 3 illustrates quantification of atRA levels by HPLC in human smooth muscle cells and transfected COS-1 cells: A) Human smooth muscle cells were treated with 1 or 10 μM of the new CYP26 inhibitor for 1 h followed by a 4 h [^3H] atRA incubation. B) COS-1 transfected by 1 μg/μL of CYP26B1 and incubated with 1 or 10 μM of test compound followed by a 2 h [^3H] atRA incubation. For all experiments n=3; *P<0.05, **P<0.01 and ***P<0.001.
# To investigate the specificity of our candidate to inhibit CYP26B1-mediated catabolism of atRA, COS-1 cells were transfected with CYP26B1 or an empty vector (in which case no CYP26B1 can be produced). COS-1 was maintained in Dulbecco's Modified Eagle's Medium (DMEM; Life Technologies, Carsbad, Calif., USA) and transfection of COS-1 was performed in 12 well plates using 1 μg/μl of CYP26B1 and 2 μl of lipofectamin 2000 in 250 μl of Opti-MEM (Opti-MEM: Modified Eagle's Minimum Essential Media; Life Technologies, Carlsbad, Calif., USA). The mixture was incubated at room temperature for 20 minutes and added to the plate for 4 h followed by addition of growth medium for 24 h. The next day, the medium was replaced by fresh DMEM and treated by 1 or 10 μM of the compound according to Formula II for 1 h followed by exposure to 1 μCl/ml of [^3H] atRA for 2 h, and subsequent HPLC analysis.
# [4] = biological target: T2, CYP26B1; experiment: [3H] atRA catabolism in human smooth muscle cells, HPLC analysis; assay type: cell-based; set-up: endogenous in cells; host or cells: human aortic smooth muscle cells (AOSMC); conditions: AOSMCs, 1 or 10 μM for 1 h, then [3H] atRA for 4 h
# Experimental: as §1
# AOSMCs were seeded out in density of 2×10^5 in 6 well plates incubated with two different concentrations (1 and 10 μM) of compound according to Formula II for 1 h followed by exposure to 1 μCl/ml of [^3H] atRA for 4 h. Cells were thereafter washed using BSA 1 mg/ml of PBS followed by HPLC analysis.
# [5] = 1 μM in combination with atRA, 48 h
# [6] = 0.001-10 μM, 24 h, normalized to Cyclophilin A, vs DMSO control
smiles,measurement,setting,value
Cn1nnnc1SCCC(=O)NCc1ccc(C(=O)O)cc1 [compound of Formula II],effect of atRA on induction of CYP26B1 mRNA,[1]; [5],significantly increased the effects of atRA on the induction
same,effect of atRA on induction of RARβ mRNA,[1]; [5],significantly increased the effects of atRA on the induction
same,expression of CYP26B1 mRNA,[1]; [6],significantly induced in a dose-dependent manner
same,expression of RARβ mRNA,[1]; [6],significantly induced in a dose-dependent manner
same,RA degradation by purified CYP26B1,[2],efficiently inhibited RA degradation
same,levels of atRA,[3],significantly increased the levels of atRA
same,degradation of atRA in the cells,[4],greatly reduces the degradation of atRA
